Measurements reported in ChEMBL document CHEMBL1201862, “PubChem BioAssay data set” (2004).
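Dose response: 5 concentrations. Exposure: 48 h. Format: 96-well plates. Endpoint: linear interpolation; highest concentration if not reached. Here, GI50 denotes the concentration required for 50% inhibition of growth.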 Calls of active or inactive are those of the source. No stated cut-off is given here; in the data, active = GI50 up to about 1.1 µM and inactive = higher.

What was measured:
Test in all cases: inhibition of tumour cell growth, NCI panel, 48 h
786-0 = test system: 786-0
A498 = test system: A498
A549 = test system: A549
ACHN = test system: ACHN
CAKI-1 = test system: CAKI-1
CCRF-CEM = test system: CCRF-CEM
COLO 205 = test system: COLO 205
DLD-1 = test system: DLD-1
EKVX = test system: EKVX
HCT-116 = test system: HCT-116
HCT-15 = test system: HCT-15
HL-60 = test system: HL-60
HOP-18 = test system: HOP-18
HOP-62 = test system: HOP-62
HOP-92 = test system: HOP-92
HT-29 = test system: HT-29
IGROV-1 = test system: IGROV-1
K562 = test system: K562
KM-20L2 = test system: KM-20L2
KM12 = test system: KM12
LOX IMVI = test system: LOX IMVI
LXFL 529 = test system: LXFL 529
M14 = test system: M14
M19-MEL = test system: M19-MEL
Malme-3M = test system: Malme-3M
NCI-H226 = test system: NCI-H226
NCI-H23 = test system: NCI-H23
NCI-H460 = test system: NCI-H460
NCI-H522 = test system: NCI-H522
OVCAR-3 = test system: OVCAR-3
OVCAR-4 = test system: OVCAR-4
OVCAR-5 = test system: OVCAR-5
OVCAR-8 = test system: OVCAR-8
RPMI-8226 = test system: RPMI-8226
RXF 393 = test system: RXF 393
RXF 631 = test system: RXF 631
SF-268 = test system: SF-268
SF-295 = test system: SF-295
SF-539 = test system: SF-539
SK-MEL-2 = test system: SK-MEL-2
SK-MEL-5 = test system: SK-MEL-5
SK-OV-3 = test system: SK-OV-3
SN12C = test system: SN12C
SNB-19 = test system: SNB-19
SNB-75 = test system: SNB-75
SNB-78 = test system: SNB-78
SR = test system: SR
SW-620 = test system: SW-620
TK-10 = test system: TK-10
U-251 = test system: U-251
UACC-257 = test system: UACC-257
UACC-62 = test system: UACC-62
UO-31 = test system: UO-31
XF498 = test system: XF498
DMS-114 = test system: DMS-114
DMS-273 = test system: DMS-273
HCC 2998 = test system: HCC 2998
MOLT-4 = test system: MOLT-4
SK-MEL-28 = test system: SK-MEL-28

Measured: GI50

C/C(=N\NS(=O)(=O)c1ccc(C)cc1)C(CN1CCOCC1)C(c1ccccc1)c1c(O)c2ccccc2oc1=O (stereo not given)
inactive: 786-0 > 100 µM | A498 > 100 µM | A549 > 100 µM | ACHN > 100 µM | CAKI-1 > 100 µM | CCRF-CEM 37.5 µM | COLO 205 40.8 µM | DLD-1 > 100 µM | EKVX > 100 µM | HCT-116 > 100 µM | HL-60 30.8 µM | HOP-18 > 100 µM | HOP-62 > 100 µM | HOP-92 59.8 µM | HT-29 > 100 µM | IGROV-1 > 100 µM | K562 53.2 µM | KM-20L2 > 100 µM | KM12 > 100 µM | LOX IMVI > 100 µM | LXFL 529 > 100 µM | M14 > 100 µM | M19-MEL 99.5 µM | Malme-3M > 100 µM | NCI-H226 > 100 µM | NCI-H23 > 100 µM | NCI-H460 > 100 µM | NCI-H522 59.8 µM | OVCAR-3 89.5 µM | OVCAR-4 > 100 µM | OVCAR-5 > 100 µM | OVCAR-8 > 100 µM | RPMI-8226 35.2 µM | RXF 393 68.2 µM | RXF 631 > 100 µM | SF-268 > 100 µM | SF-295 83 µM | SF-539 > 100 µM | SK-MEL-2 > 100 µM | SK-MEL-5 > 100 µM | SK-OV-3 > 100 µM | SN12C > 100 µM | SNB-19 > 100 µM | SNB-75 > 100 µM | SNB-78 > 100 µM | SR 19.7 µM | SW-620 30.6 µM | TK-10 > 100 µM | U-251 > 100 µM | UACC-257 > 100 µM | UACC-62 > 100 µM | UO-31 72.3 µM | XF498 > 100 µM
> 100 µM: HCT-15

CC12OC3(O)C4C5CC(C6C5C3C61)C42 (stereo not given)
> 100 µM: HCT-15
inactive: 786-0 38.3 µM | A549 > 100 µM | ACHN > 100 µM | CAKI-1 > 100 µM | CCRF-CEM > 100 µM | COLO 205 > 100 µM | DLD-1 > 100 µM | DMS-114 > 100 µM | DMS-273 > 100 µM | HCC 2998 > 100 µM | HCT-116 > 100 µM | HL-60 > 100 µM | HOP-18 > 100 µM | HOP-62 > 100 µM | K562 > 100 µM | KM-20L2 > 100 µM | KM12 > 100 µM | LXFL 529 22.9 µM | M14 29.4 µM | M19-MEL > 100 µM | MOLT-4 > 100 µM | Malme-3M > 100 µM | NCI-H226 > 100 µM | NCI-H522 > 100 µM | OVCAR-4 > 100 µM | OVCAR-8 > 100 µM | RPMI-8226 > 100 µM | RXF 393 > 100 µM | RXF 631 > 100 µM | SF-268 > 100 µM | SF-539 > 100 µM | SK-MEL-28 > 100 µM | SK-MEL-2 > 100 µM | SK-OV-3 > 100 µM | SN12C > 100 µM | SNB-19 > 100 µM | SNB-75 > 100 µM | SNB-78 > 100 µM | SR > 100 µM | SW-620 > 100 µM | TK-10 > 100 µM | U-251 > 100 µM | UACC-257 > 100 µM | UACC-62 > 100 µM | UO-31 > 100 µM

CC(C)C1CO[C@]2(C)CCC(=O)N12 (stereo not given in full)
inactive: 786-0 > 100 µM | A549 > 100 µM | ACHN > 100 µM | CAKI-1 > 100 µM | CCRF-CEM > 100 µM | COLO 205 > 100 µM | DLD-1 > 100 µM | DMS-114 > 100 µM | EKVX > 100 µM | HCT-116 > 100 µM | HL-60 > 100 µM | HOP-18 > 100 µM | HOP-62 > 100 µM | HOP-92 > 100 µM | HT-29 > 100 µM | IGROV-1 > 100 µM | K562 > 100 µM | KM-20L2 > 100 µM | KM12 > 100 µM | LXFL 529 > 100 µM | M14 > 100 µM | M19-MEL > 100 µM | MOLT-4 > 100 µM | Malme-3M > 100 µM | NCI-H226 > 100 µM | NCI-H23 > 100 µM | NCI-H460 > 100 µM | NCI-H522 > 100 µM | OVCAR-3 > 100 µM | OVCAR-4 > 100 µM | OVCAR-8 > 100 µM | RPMI-8226 > 100 µM | RXF 393 > 100 µM | RXF 631 > 100 µM | SF-268 > 100 µM | SF-295 > 100 µM | SF-539 > 100 µM | SK-MEL-28 > 100 µM | SK-MEL-2 > 100 µM | SK-MEL-5 > 100 µM | SK-OV-3 > 100 µM | SN12C > 100 µM | SNB-19 > 100 µM | SNB-75 > 100 µM | SR > 100 µM | SW-620 > 100 µM | TK-10 > 100 µM | U-251 > 100 µM | UACC-257 > 100 µM | UACC-62 > 100 µM | UO-31 > 100 µM | XF498 > 100 µM
> 100 µM: HCT-15

C/C(=N\NC(N)=O)C(CN1CCCCC1)C(c1ccccc1)c1c(O)c2ccccc2oc1=O (stereo not given)
> 100 µM: HCT-15
inactive: A498 > 100 µM | A549 > 100 µM | ACHN > 100 µM | CAKI-1 > 100 µM | CCRF-CEM > 100 µM | COLO 205 > 100 µM | DLD-1 > 100 µM | DMS-114 > 100 µM | DMS-273 > 100 µM | EKVX > 100 µM | HCC 2998 > 100 µM | HCT-116 > 100 µM | HL-60 > 100 µM | HOP-18 > 100 µM | HOP-62 > 100 µM | HT-29 > 100 µM | IGROV-1 > 100 µM | K562 > 100 µM | KM-20L2 > 100 µM | KM12 > 100 µM | LOX IMVI > 100 µM | LXFL 529 > 100 µM | M14 > 100 µM | M19-MEL > 100 µM | MOLT-4 > 100 µM | Malme-3M > 100 µM | NCI-H226 > 100 µM | NCI-H460 > 100 µM | NCI-H522 > 100 µM | OVCAR-3 > 100 µM | OVCAR-4 > 100 µM | OVCAR-5 > 100 µM | OVCAR-8 > 100 µM | RPMI-8226 > 100 µM | RXF 393 > 100 µM | RXF 631 > 100 µM | SF-268 > 100 µM | SF-295 > 100 µM | SF-539 > 100 µM | SK-MEL-28 > 100 µM | SK-MEL-2 > 100 µM | SK-MEL-5 > 100 µM | SK-OV-3 > 100 µM | SN12C > 100 µM | SNB-19 > 100 µM | SNB-75 > 100 µM | SNB-78 > 100 µM | SR > 100 µM | SW-620 > 100 µM | TK-10 > 100 µM | U-251 > 100 µM | UACC-257 > 100 µM | UACC-62 > 100 µM | UO-31 > 100 µM
active: 786-0 0.6 µM

Nc1ncnc2c1ncn2COC/C=C/I
inactive: 786-0 > 100 µM | A498 > 100 µM | A549 > 100 µM | ACHN > 100 µM | CAKI-1 > 100 µM | CCRF-CEM 85.3 µM | COLO 205 > 100 µM | DLD-1 > 100 µM | DMS-114 > 100 µM | DMS-273 > 100 µM | EKVX 77.6 µM | HCC 2998 > 100 µM | HCT-116 > 100 µM | HOP-18 14 µM | HOP-62 > 100 µM | HOP-92 > 100 µM | HT-29 > 100 µM | IGROV-1 > 100 µM | K562 > 100 µM | KM12 > 100 µM | LOX IMVI > 100 µM | LXFL 529 > 100 µM | M14 > 100 µM | M19-MEL > 100 µM | MOLT-4 > 100 µM | Malme-3M > 100 µM | NCI-H226 > 100 µM | NCI-H23 > 100 µM | NCI-H460 > 100 µM | NCI-H522 > 100 µM | OVCAR-3 > 100 µM | OVCAR-4 > 100 µM | OVCAR-5 > 100 µM | OVCAR-8 > 100 µM | RPMI-8226 > 100 µM | RXF 393 > 100 µM | RXF 631 > 100 µM | SF-268 > 100 µM | SF-295 > 100 µM | SF-539 > 100 µM | SK-MEL-28 > 100 µM | SK-MEL-2 > 100 µM | SK-MEL-5 > 100 µM | SK-OV-3 > 100 µM | SN12C > 100 µM | SNB-19 > 100 µM | SNB-75 36.7 µM | SNB-78 > 100 µM | SR > 100 µM | SW-620 > 100 µM | TK-10 > 100 µM | U-251 > 100 µM | UACC-257 > 100 µM | UACC-62 > 100 µM | UO-31 > 100 µM | XF498 > 100 µM
